Experimental data reported in article PMC9132982, “Inhibitory role of proguanil on the growth of bladder cancer via enhancing EGFR degradation and inhibiting its downstream signaling pathway to induce autophagy” (Cell Death & Disease, 2022).

Target: epidermal growth factor receptor (EGFR) (Homo sapiens, UniProt P00533)
Assay: SPRi with photo-crosslinked immobilized proguanil capturing proteins from T24 cell lysate, identified by LC-MS; no Kd
Format: cell-based

Chain of epidermal growth factor receptor (EGFR) (P00533 25-1210): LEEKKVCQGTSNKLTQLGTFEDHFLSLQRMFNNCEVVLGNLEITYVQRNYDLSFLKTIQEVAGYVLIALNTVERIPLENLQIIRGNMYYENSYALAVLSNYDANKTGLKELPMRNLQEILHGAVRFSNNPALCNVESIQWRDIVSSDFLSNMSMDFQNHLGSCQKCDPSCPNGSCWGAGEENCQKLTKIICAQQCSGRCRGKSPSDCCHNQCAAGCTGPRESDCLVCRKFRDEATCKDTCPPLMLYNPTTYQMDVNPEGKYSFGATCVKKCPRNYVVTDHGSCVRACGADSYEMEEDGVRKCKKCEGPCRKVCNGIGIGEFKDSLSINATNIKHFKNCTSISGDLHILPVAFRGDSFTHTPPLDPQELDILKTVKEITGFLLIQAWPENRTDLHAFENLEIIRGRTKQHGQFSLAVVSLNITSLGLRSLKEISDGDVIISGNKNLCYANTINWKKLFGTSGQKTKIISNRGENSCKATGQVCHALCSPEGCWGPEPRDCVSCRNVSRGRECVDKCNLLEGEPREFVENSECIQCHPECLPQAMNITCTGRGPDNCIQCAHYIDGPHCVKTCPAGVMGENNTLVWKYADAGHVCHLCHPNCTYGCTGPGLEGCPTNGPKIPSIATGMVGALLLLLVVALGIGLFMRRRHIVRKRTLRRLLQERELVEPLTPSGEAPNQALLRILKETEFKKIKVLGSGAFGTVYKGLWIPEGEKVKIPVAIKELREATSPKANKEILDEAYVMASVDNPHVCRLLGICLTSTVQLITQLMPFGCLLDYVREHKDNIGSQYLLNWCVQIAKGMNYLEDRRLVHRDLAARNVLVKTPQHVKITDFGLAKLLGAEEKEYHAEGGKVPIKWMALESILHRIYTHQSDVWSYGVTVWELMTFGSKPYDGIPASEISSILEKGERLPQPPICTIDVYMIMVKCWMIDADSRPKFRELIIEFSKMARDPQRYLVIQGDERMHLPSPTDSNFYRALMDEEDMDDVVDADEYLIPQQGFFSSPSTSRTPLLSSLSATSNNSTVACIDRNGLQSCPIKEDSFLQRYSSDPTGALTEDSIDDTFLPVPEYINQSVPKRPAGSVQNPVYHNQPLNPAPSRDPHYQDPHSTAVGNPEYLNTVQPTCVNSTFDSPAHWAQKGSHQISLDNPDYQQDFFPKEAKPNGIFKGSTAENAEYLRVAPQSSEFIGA

**Q.** For [H]/N=C(\N/C(=N/[H])Nc1ccc(Cl)cc1)NC(C)C [proguanil], which “SPRi with photo-crosslinked immobilized proguanil capturing proteins from T24 ce” value is on record?
**A.** The value was “surface plasmon resonance imaging (SPRi) experiments and found that proguanil strongly binds to EGFR (Fig. 1A)”.
